≈ marks a conversion by molar mass, not a printed value.
Tests used:
Cryptococcus neoformans = assay: Antifungal activity against Cryptococcus neoformans; type: functional
Candida albicans = assay: Antifungal activity against Candida albicans; type: functional

Row | SMILES | MIC (Cryptococcus neoformans) | MIC (Candida albicans)
1 | COC1=C(Br)[C@H](O)[C@@]2(C=C1Br)CC(C(=O)NCCc1cn(-c3cc(O)c4[nH]cc(O)c(=O)c4c3O)cn1)=NO2 [CERATINADIN A] | 4 µg/mL (≈ 5.99 µM) | 2 µg/mL (≈ 3 µM)
2 | COC1=C(Br)[C@H](O)[C@@]2(C=C1Br)CC(C(=O)NCCc1[nH]c(=N)[nH]c1-c1cc(O)c3[nH]cc(O)c(=O)c3c1O)=NO2 [CERATINADIN B] | 8 µg/mL (≈ 11.7 µM) | 4 µg/mL (≈ 5.86 µM)
3 | N=c1[nH]cc(CCNC(=O)C2=NO[C@]3(C=C(Br)C(=O)[C@@H](Br)[C@@H]3O)C2)[nH]1 [CERATINADIN C] | > 32 µg/mL | > 32 µg/mL
